Columns and labels:
GmNFR5a^ECD = GmNFR5a^ECD (Glycine max, UniProt A5YJV9); experiment: Microscale thermophoresis (MST) binding to GmNFR5a^ECD; design: species or system soybean (Glycine max); conditions: ligand dp6, His-tagged protein purified from Pichia pastoris, read-out: dissociation constant (K D) with GmNFR5a^ECD
Source text: (§1) The ectodomains of GmCERK1, GmNFR5a, and mutants were cloned into the yeast expression vector pPICZαA (Thermo Fisher Scientific, Shanghai, China) through the double digestion and ligation using the restriction endonuclease EcoRI/XbaI (NEB, Suzhou, China) and T4 ligase. Then, the linearized recombinant plasmid pPICZαA‐GmCERK1 and pPICZαA‐GmNFR5a were transformed into P. pastoris X‐33. The positive colonies were selected on YPDS medium (1% w/v yeast extract, 2% w/v peptone, 2% w/v glucose, 2% w/v agar, 100 μg/mL antibiotic Zeocin (Thermo Fisher Scientific)) plates and verified by direct DNA sequencing. Protein expression was carried out initially in BMGY media (100 mM potassium phosphate pH 6.0, 1.34% w/v YNB, 4 × 10^−5% w/v biotin, 1% v/v glycerol) at 28°C with shaking (180 rpm) until the OD600 reached 2.0–6.0. The cell pellet was transferred into BMMY medium (100 mM potassium phosphate pH 6.0, 1.34% w/v YNB, 4 × 10^−5% w/v biotin, 0.5% v/v methanol) and continuously supplied with the addition of 0.5% (v/v) methanol every day for 5 d. […]
(§2) GmCERK1^ECD, GmNFR5a^ECD, and all mutants were labeled with a fluorescent dye using the Monolith Protein Labeling Kit RED‐NHS second Generation (MO‐L011). […] The data were analyzed and fitted by plotting ligand concentrations against bound fractions using the MO.Affinity Analysis v3.0.5 software. […]

[1] = test system: GmNFR5a-GmCERK1 interaction; experiment: Co-immunoprecipitation of GmNFR5a-GFP with GmCERK1-HA in N. benthamiana; assay type: cell-based, soybean (Glycine max); conditions: Co-IP; N. benthamiana leaves treated 50 mg/L for 5 min
Method: (§3) Nicotiana benthamiana leaves were harvested 48 h post inoculation (hpi) after agroinfiltration. Samples were ground in liquid nitrogen and incubated for 30 min in a lysis buffer (50 mM Tris-HCl pH 8.0, 150 mM NaCl, 1.0% (v/v) NP-40, 0.1% SDS (w/v) and 0.1% protease inhibitor cocktail ([…]; Sigma, St. Louis, MI, USA)). Supernatant was collected by centrifugation at 21,000 g for 15 min and then incubated with GFP-trap beads (item No.: gta-20; Chromotek, Hauppauge, NY, USA) at 4°C for 2 h. The GFP-trap beads were pelleted by centrifugation at 500 g for 2 min and washed with lysis buffer at least four times. Proteins were eluted by boiling the beads in a protein loading buffer for 10 min and detected by immunoblot analysis with anti-GFP (Cat No. M20004; Abmart, Shanghai, China) or anti-HA (Cat No. M20013; Abmart, Shanghai, China).

GmNFR5a homodimer = experiment: Co-immunoprecipitation of GFP-tagged GmNFR5a with HA-tagged GmNFR5a in N. benthamiana; assay type: cell-based, soybean (Glycine max); conditions: Co-IP; N. benthamiana leaves treated 50 mg/L for 5 min
Method: as §3

[2] = test system: GmCERK1-GmCAK1 interaction; experiment: Co-immunoprecipitation of GmCERK1-GFP with GmCAK1-HA in N. benthamiana; assay type: cell-based, soybean (Glycine max); conditions: Co-IP; N. benthamiana leaves treated 50 mg/L for 5 min
Method: as §3

Phytophthora sojae P6497 = experiment: P. sojae infection of pretreated soybean etiolated hypocotyls; assay type: in vivo, Phytophthora sojae on soybean (Glycine max); conditions: for biomass of P. sojae: dp6, 50 mg/L, 24 h before inoculation with zoospores, etiolated hypocotyls, 48 hpi, genomic DNA qPCR, vs mock dH2O
Method: For soybean etiolated hypocotyls inoculation assays, etiolated hypocotyls of soybean (cultivar Williams) were inoculated with P. sojae zoospore suspensions (100 zoospores). Infected etiolated hypocotyls were maintained at 25°C in the dark for 2 d, photographed and collected for biomass detection. For soybean hairy‐root inoculation assays, transgenic hairy roots were soaked in CTOS/CSOS (50 mg/L) or mock (dH2O) for 12 h and then were infected with red fluorescent protein (RFP)‐labeled P. sojae strain P6497, and fluorescence was visualized in the infected area of soybean hairy root and the biomass of P. sojae was determined by qRT‐PCR at 48 hpi.

GmCERK1^ECD = GmCERK1^ECD (Glycine max, UniProt K7N1N7); experiment: Microscale thermophoresis (MST) binding to GmCERK1^ECD; design: species or system soybean (Glycine max); conditions: ligand dp6, His-tagged protein purified from Pichia pastoris, read-out: dissociation constant (K D) with GmCERK1^ECD
Source text: as §1, §2

GmCERK1^ECD, sequence (K7N1N7 entry or part of it): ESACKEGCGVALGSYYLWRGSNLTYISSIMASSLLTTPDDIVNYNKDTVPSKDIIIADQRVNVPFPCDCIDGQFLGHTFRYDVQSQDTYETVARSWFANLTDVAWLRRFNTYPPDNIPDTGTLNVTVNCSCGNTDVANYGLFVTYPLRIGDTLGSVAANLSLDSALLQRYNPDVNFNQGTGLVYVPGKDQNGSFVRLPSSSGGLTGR
GmNFR5a^ECD, sequence (A5YJV9 entry or part of it): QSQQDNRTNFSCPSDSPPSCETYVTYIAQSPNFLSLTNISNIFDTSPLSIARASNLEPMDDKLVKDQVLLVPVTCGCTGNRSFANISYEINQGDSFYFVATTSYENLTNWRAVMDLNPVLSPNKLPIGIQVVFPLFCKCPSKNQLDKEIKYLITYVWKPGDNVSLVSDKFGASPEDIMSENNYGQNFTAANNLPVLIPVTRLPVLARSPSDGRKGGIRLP

| Compound | Kd (GmNFR5a^ECD) | GmNFR5a interaction with GmCERK1 [1] | GmNFR5a homodimer formation (GmNFR5a homodimer) | interaction between GmCERK1 and GmCAK1 [2] | biomass of P. sojae (Phytophthora sojae P6497) | plant resistance elicited, compared with CTOS (Phytophthora sojae P6497; soybean etiolated hypocotyls, P. sojae (Figure 1E, F)) | Kd (GmCERK1^ECD) |
| --- | --- | --- | --- | --- | --- | --- | --- |
| N[C@H]1[C@H](O[C@H]2[C@H](O)[C@@H](N)[C@H](O[C@H]3[C@H](O)[C@@H](N)[C@H](O[C@H]4[C@H](O)[C@@H](N)[C@H](O[C@H]5[C@H](O)[C@@H](N)[C@H](O[C@H]6[C@H](O)[C@@H](N)C(O)O[C@@H]6CO)O[C@@H]5CO)O[C@@H]4CO)O[C@@H]3CO)O[C@@H]2CO)O[C@H](CO)[C@@H](O)[C@@H]1O (stereo partly shown) [CSOS (dp6), chitosan oligosaccharide] | 7.04 ± 2.62 mM | interacted strongly | strong homodimer | diminished | significantly lower | somewhat weaker | 10.6 ± 1.46 mM |
| CC(=O)N[C@H]1[C@H](O[C@H]2[C@H](O)[C@@H](NC(C)=O)[C@H](O[C@H]3[C@H](O)[C@@H](NC(C)=O)C(O)O[C@@H]3CO)O[C@@H]2CO)O[C@H](CO)[C@@H](O[C@@H]2O[C@H](CO)[C@@H](O[C@@H]3O[C@H](CO)[C@@H](O[C@@H]4O[C@H](CO)[C@@H](O)[C@H](O)[C@H]4NC(C)=O)[C@H](O)[C@H]3NC(C)=O)[C@H](O)[C@H]2NC(C)=O)[C@@H]1O (stereo partly shown) [CTOS (dp6), chitin oligosaccharide] | 20.5 ± 6.07 mM | interacted strongly | strong homodimer | diminished | significantly lower |  | 3.25 ± 0.95 mM |

Reference: publication PMC12782889, “A GmNRF5a–GmCERK1–GmCAK1 module mediates chitin/chitosan‐triggered immune response in soybean” (Journal of Integrative Plant Biology, 2025)
